In series [1] the test system is human glioblastoma stemlike cells and serum-cultured human glioblastoma cells. To be noted: Weichert 2014, FIG. 2; cited from earlier work.
For series [2], the system named is cancer cell lines (renal, ovarian, pancreatic, melanoma, prostate) vs normal human skin fibroblast. Put plainly: CLR1501 uptake in cancer cell lines vs normal fibroblasts (confocal microscopy). It counts as cell-based. To be noted: 24 hours, 5 or 7.5 μM, in vitro. The source says: Human cancer cell lines were purchased from the American Type Culture Collection (ATCC). They included the following: Caki-2 (renal; clear cell carcinoma), HCT-116 (colorectal carcinoma); MES-SA/Dx5 (uterine sarcoma) [all maintained in McCoy's 5a medium supplemented with 10% fetal bovine serum (FBS)], Ovcar-3 (ovarian adenocarcinoma) [maintained in RPMI medium supplemented with 20% FBS], U87-MG (glioma) [maintained in minimum essential medium supplemented with 10% FBS], Mia Paca-2 (pancreatic carcinoma) (maintained in Dulbecco's modified Eagle's medium supplemented with 10% FBS), PC-3 (prostate carcinoma) (maintained in F-12K medium supplemented with 10% FBS), MDA-MB-231 (triple-negative mammary gland adenocarcinoma) (maintained in Leibovitz's medium supplemented with 10% FBS), and A549 (non-small cell lung carcinoma) (maintained in F-12 medium supplemented with 10% FBS). Normal human skin fibroblasts were purchased from ATCC and grown in Fibroblast Basal Medium PCS-201-030 supplemented with serum-free kit (Fibroblast Growth Kit-Serum-Free PCS-201-040). […]
All cells were maintained at 37° C. in appropriate medium supplemented with 10% FBS and 5% CO2. […] The emission signal of CLR1501 was detected using Alexa Fluor 488 filters (ex/em 480/520 nm). […]

Series [3] deals with MDA-MB-468 cells. The series can be described thus: Annexin V/PI flow cytometry, MDA-MB-468. It counts as cell-based. As to the method: (§1) Debris was eliminated from this analysis.
MDA-MB-468 cells, were also treated with CLR conjugates (CLR1606 and CLR1607) for 72 hours and with geldanamycin (“GEL”) for 48 hours.
(§2) CLR conjugates appear to require a longer treatment period with cells to induce cell death.
(In general: Flow cytometry measures light scatter and fluorescence of single cells or particles in a stream.)

The subject of series [4] is MDA-MB-468, NCI-H1299, NCI-H460, Capan-2, MiaPaCa-1, HT29, HCT116 and PC-3 cancer cell lines. The series can be described thus: Cell viability, panel of eight cancer cell lines. It counts as cell-based. The note with it: serial concentrations. As to the method: The cell lines were then measured for cell viability and reported as IC50 for each treatment.
In vivo, free paclitaxel is taken up by cancerous tumor cells at a much lower rate due to the non-specific nature of paclitaxel uptake.

Series [5] has as its system MDA-MB-468 cells. The series can be described thus: Annexin V/PI flow cytometry, MDA-MB-468. To be noted: MDA-MB-468, 1 uM, 48 hrs. It counts as cell-based.
The subject of a further series is COLO 829 cells. Put plainly: Annexin V/PI flow cytometry, COLO 829. It counts as cell-based. The method, then: as §1
COLO 829 cells, a melanoma cell line, were treated with […] (CLR1606 and CLR1607) for 72 hrs and GEL for 48 hours.
as §2

For another series, the system named is PANC-1 cells. The series can be described thus: Annexin V/PI flow cytometry, PANC-1. It counts as cell-based. To be noted: table title 72 hours, GEL for 48 hours. As to the method:
as §1
PANC-1 cells, a pancreatic cancer cell line, were treated with GEL conjugates (CLR1606 and CLR1607) for 72 hrs and GEL for 48 hours.

The subject of the next series is 22RV1 cells. Put plainly: Annexin V/PI flow cytometry, 22RV1. It counts as cell-based. To be noted: table title 72 hours, GEL for 48 hours. As to the method:
as §1
22RV1 cells, a prostate cancer cell line, were treated with GEL conjugates (CLR1606 and CLR1607) for 72 hrs and GEL for 48 hours. Cell viability was 20.3%, 21.3%, 16.0%, 21.9%, 15.7%, 19.4%, and 28.1% after treatment with no drug, 1 μM CLR1606, 10 μM CLR1606, 1 μM CLR1607, 10 μM CLR1607, 100 nM GEL, and 1 μM GEL, respectively.

For the next series, the system named is PC-3 cells. The series can be described thus: 125I-CLR1404 uptake after lipid raft disruption with filipin III. It counts as cell-based. To be noted: PC-3 cells pretreated with 2 μg/ml filipin III 15 min, then 125I-CLR1404 1 h; vs untreated control cells. As to the method: PC-3 cells were pretreated with either 2 μg/ml filipin III or vehicle for 15 min, then washed and incubated with 2 μCi of ^125I-CLR1404 for 1 h. The media was removed and the cells were washed with phosphate buffered saline containing 0.1% bovine serum albumin, trypsinized, then split into two samples for determination of cell number by DNA content (A280 compared to a cell line specific standard curve) and counts per minute using a Gamma Counter (Perkin Elmer).
This supports the hypothesis that CLR1404 uses lipid rafts as portals of entry into cancer cells.

The next series relates to C6 glioma. The series can be described thus: Rat C6 glioma model, tissue distribution of NM404. It counts as in vivo. To be noted: C6 glioma-bearing rats, 24 h after tail vein injection. The method, then: Materials and Methods: All animals were housed and handled in accordance with the University of Wisconsin Research Animal Resources Center guidelines. Rat C6 glioma cells were propagated in DMEM medium (Life Technologies, Gaithersburg, Md.) supplemented with 10% heat-inactivated FBS (BioWhittaker, Walkersville, Md.), 100 U/ml penicillin G, […] streptomycin, and 0.01 M HEPES (Life Technologies, Gaithersburg, Md.). Intracranial tumor implantation was performed as described previously. Cohen J D, et al., Intracranial C6 glioma model in adult Wistar-Furth rats. J Neuro Oncol 1990 8(1):95-6. Briefly, 1×10^6 C6 cells were resuspended in […] 1.2% methylcellulose and injected into the frontal lobes of anesthetized female Wistar rats (Harlan, Indianapolis, Ind.). Sham-operated animals received intracranial injections of an equal volume of methylcellulose without tumor cells.
Imaging Studies: Ten days after implantation, the presence of intracranial tumors was confirmed with MRI. […]
NM404 [18-(4-iodophenyl)-octadecylphosphocholine] […] In addition, normal brain, blood, kidney, liver, spleen, thyroid, and tumor tissues were weighed, and radioactivity counted in a gamma counter. The tissue distribution of radioactivity was then correlated to brain histology.

Setting [6] is: MDA-MB-468, 1 uM, 72 hrs (Table 3).

Regarding `C[N+](C)(C)CCOP(=O)([O-])OCCCCCCCCCCCCCCCCCCc1ccc(C2=C3C=CC=[N+]3[B-](F)(F)n3cccc32)cc1` [CLR1501], the “uptake compared to normal human astrocytes and fetal human neural stem cells” value in series [1] is on record as “enhanced uptake”. In addition, in [2], the “preferential uptake in cancer cell lines compared to normal fibroblasts” value was “five to nine-fold”.

Regarding `CC(=O)O[C@H]1C(=O)[C@@]2(C)[C@H]([C@H](OC(=O)c3ccccc3)[C@]3(O)C[C@H](OC(=O)[C@H](OC(=O)CCCC(=O)Nc4ccc(CCCCCCCCCCCCCCCCCCOP(=O)([O-])OCC[N+](C)(C)C)cc4)[C@@H](NC(=O)c4ccccc4)c4ccccc4)C(C)=C1C3(C)C)[C@]1(OC(C)=O)CO[C@@H]1C[C@@H]2O` [CLR1601], the “Early Apoptotic” value in the series on MDA-MB-468 cells [3] (setting [6]) is listed as 9.83 % of total cells. In addition, the Live in the series with MDA-MB-468 cells [3] (setting [6]) is 17 % of total cells; in the series with MDA-MB-468 cells [3] (MDA-MB-468, 5 uM, 72 hrs), 17.8 % of total cells; with MDA-MB-468 cells [5], 79.4 % of total cells. Besides, the “ability to reduce cancer cell line viability” value in series [4] is listed as “capable of reducing cell viability”. In addition, the “Late Apoptotic” value in the series on MDA-MB-468 cells [5] is 6 % of total cells.

Regarding `CC(=O)O[C@H]1C(=O)[C@]2(C)[C@@H](OC(=O)NCCCC(=O)Nc3ccc(CCCCCCCCCCCCCCCCCCOP(=O)([O-])OCC[N+](C)(C)C)cc3)C[C@H]3OC[C@@]3(OC(C)=O)[C@H]2[C@H](OC(=O)c2ccccc2)[C@]2(O)C[C@H](OC(=O)[C@H](O)[C@@H](NC(=O)c3ccccc3)c3ccccc3)C(C)=C1C2(C)C` [CLR1602], in [4], the “ability to reduce cancer cell line viability” value is reported as “not capable of significantly reducing cancer cell line viability”.

In the case of `CC(=O)O[C@H]1C(=O)[C@@]2(C)[C@H]([C@H](OC(=O)c3ccccc3)[C@]3(O)C[C@H](OC(=O)[C@H](OC(=O)OCCCCC(=O)Nc4ccc(CCCCCCCCCCCCCCCCCCOP(=O)([O-])OCC[N+](C)(C)C)cc4)[C@@H](NC(=O)c4ccccc4)c4ccccc4)C(C)=C1C3(C)C)[C@]1(OC(C)=O)CO[C@@H]1C[C@@H]2O` [CLR1603], in the series with MDA-MB-468 cells [3] (setting [6]), the Live is 22.2 % of total cells and the Necrotic is 22 % of total cells. In the series on MDA-MB-468 cells [3] (MDA-MB-468, 5 uM, 72 hrs), the Live is on record as 19.7 % of total cells. Also, in [4], the “ability to reduce cancer cell line viability” value is on record as “capable of reducing cell viability”. In the series with MDA-MB-468 cells [5], the “Early Apoptotic” value was 1.4 % of total cells and the Live is 81.4 % of total cells.

Take `COC1=C2C[C@@H](C)C[C@H](OC)[C@H](O)[C@@H](C)/C=C(\C)[C@H](OC(N)=O)[C@@H](OC)/C=C\C=C(/C)C(=O)NC(=CC1=O)C2=O` [GEL, geldanamycin]: the Live in the series on COLO 829 cells (COLO 829, 100 nM, 48 hrs (Table 9)) is listed as 36.1 % of total cells; in the series with COLO 829 cells (COLO 829, 1 uM, 48 hrs (Table 9)), 24.6 % of total cells; in the series with COLO 829 cells (COLO 829, GEL 100 nM, Table 5 title 72 hours, GEL for 48 hours), 32.4 % of total cells; in the series with COLO 829 cells (COLO 829, GEL 1 uM, Table 5 title 72 hours, GEL for 48 hours), 18.6 % of total cells; with MDA-MB-468 cells [3] (MDA-MB-468, GEL 1 uM, table title 72 hours, text: geldanamycin for 48 hours) it was 26.2 % of total cells; in the series with PANC-1 cells (PANC-1, GEL 100 nM), 23.3 % of total cells. Also, the Live in the series with PANC-1 cells (PANC-1, GEL 1 uM) was 18.9 % of total cells; with 22RV1 cells (22RV1, GEL 100 nM), 19.4 % of total cells; in the series with 22RV1 cells (22RV1, GEL 1 uM) it was 28.1 % of total cells.

In the case of `C[N+](C)(C)CCOP(=O)([O-])OCCCCCCCCCCCCCCCCCCc1ccc(I)cc1` [NM404, 18-(4-iodophenyl)-octadecylphosphocholine], the “reduction of uptake when lipid rafts are disrupted” value in the series with PC-3 cells is around 40%. In addition, the “Tumor to brain ratio (% injected dose/g)” value in the series with C6 glioma amounted to 10.5.

Values taken from US9480754B2, “Phospholipid ether analogs as cancer-targeting drug vehicles” (Cellectar Biosciences, Inc., priority 2014, dated 2016).
